Where two headings read alike, the source gives them in different places.
Experiments:
AMPA receptor GluA2/3 = target: T1, AMPA receptor GluA2/3 (Homo sapiens, UniProt P42262+P42263); experiment: Direct AMPA receptor current recording (TEVC) in Xenopus oocytes, GluA2/3; assay type: cell-based
T1 construct: expressed in transfected cells; host or cells: Xenopus laevis oocytes
Procedure: (§1) FIG. 1. AMPA (GluA2/3, GluA1/2, or GluA3) receptors were expressed in Xenopus oocytes, and perfused with L-glutamate (100 μM) and the indicated compound, unless stated otherwise. Currents were recorded using TEVC. (A) Representative current traces of inhibitory dose-response curves for perampanel on GluA1/2 and GluA2/3 receptors. (B) Dose-response curve showing inhibition of GluA1/2 (N=10) and GluA2/3 (N=6) by perampanel, with respective IC50 values shown in bar graph inset. (C) Effect of varying perampanel concentrations on glutamate EC50 against GluA1/2. Points were normalised to maximal response and represent the mean and SEM of 6 (glutamate only) and 5 (with 2.5 μM and 5 μM perampanel). (D) Quantitative representation of mean currents recorded in wildtype and mutant GluA3 normalised to maximal responses in the presence of perampanel (N=5 for wildtype and N=6 for mutant) and decanoic acid, DA (N=4 for both wildtype and mutant).
(§2) FIG. 2. AMPA (GluA2/3, GluA 1/2, or GluA3) receptors were expressed in Xenopus oocytes, and perfused with L-glutamate (100 μM) and the indicated compound, unless stated otherwise. Currents were recorded using TEVC. (A) Representative current traces of inhibitory dose-response curves for decanoic acid (DA) on GluA2/3 receptors at 1 μM or 4 μM perampanel. Dose-response inhibition curves for decanoic acid at 1μM or 4 μM perampanel on (B) GluA2/3 and (C) GluA1/2 receptors. Points were normalised to maximal response to L-glutamate and solvent, 1 μM perampanel or 4 μM perampanel and represent means and SEM of 8 to 13 readings. Inserts show respective ICs50 values in the presence of perampanel. (D) Representative current traces of inhibitory dose-response curves for perampanel on GluA2/3 receptors at 50 μM to 100 μM decanoic acid. (E), (F) Dose-response inhibition curves for perampanel at 50 μM and 100 μM DA on GluA2/3 (E) and GluA1/2 (F) receptors. Points were normalised to maximal response to L-glutamate with solvent, 50 μM and 100 μM DA and represent means and SEM of 8 to 13 readings. Inserts show respective perampanel IC50 values in the presence of DA. Scale bars correspond to 150 nA in GluA1/2 and 30 nA in GluA2/3 (A), 50 nA (E) and 200 nA (H). Scale bars correspond to 60 nA for +1 μM perampanel and 75 nA for +4 μM perampanel (K) and 200 nA (L).
(§3) As previously described (Chang et al. 2016. Brain 139: 431-43), AMPA receptor subunits (GluA2/3, GluA1/2, and GluA3) were expressed in Xenopus oocytes and agonist elicited inward currents were used to measure inhibition by decanoic acid (Sigma Ltd) and perampanel (Apexmol Technology Co. Ltd).

AMPA receptor GluA1/2 = target: T2, AMPA receptor GluA1/2 (Homo sapiens, UniProt P42261+P42262); experiment: Direct AMPA receptor current recording (TEVC) in Xenopus oocytes, GluA1/2; assay type: cell-based
T2 construct: expressed in transfected cells; host or cells: Xenopus laevis oocytes
T2 sequence (P42261 19-906): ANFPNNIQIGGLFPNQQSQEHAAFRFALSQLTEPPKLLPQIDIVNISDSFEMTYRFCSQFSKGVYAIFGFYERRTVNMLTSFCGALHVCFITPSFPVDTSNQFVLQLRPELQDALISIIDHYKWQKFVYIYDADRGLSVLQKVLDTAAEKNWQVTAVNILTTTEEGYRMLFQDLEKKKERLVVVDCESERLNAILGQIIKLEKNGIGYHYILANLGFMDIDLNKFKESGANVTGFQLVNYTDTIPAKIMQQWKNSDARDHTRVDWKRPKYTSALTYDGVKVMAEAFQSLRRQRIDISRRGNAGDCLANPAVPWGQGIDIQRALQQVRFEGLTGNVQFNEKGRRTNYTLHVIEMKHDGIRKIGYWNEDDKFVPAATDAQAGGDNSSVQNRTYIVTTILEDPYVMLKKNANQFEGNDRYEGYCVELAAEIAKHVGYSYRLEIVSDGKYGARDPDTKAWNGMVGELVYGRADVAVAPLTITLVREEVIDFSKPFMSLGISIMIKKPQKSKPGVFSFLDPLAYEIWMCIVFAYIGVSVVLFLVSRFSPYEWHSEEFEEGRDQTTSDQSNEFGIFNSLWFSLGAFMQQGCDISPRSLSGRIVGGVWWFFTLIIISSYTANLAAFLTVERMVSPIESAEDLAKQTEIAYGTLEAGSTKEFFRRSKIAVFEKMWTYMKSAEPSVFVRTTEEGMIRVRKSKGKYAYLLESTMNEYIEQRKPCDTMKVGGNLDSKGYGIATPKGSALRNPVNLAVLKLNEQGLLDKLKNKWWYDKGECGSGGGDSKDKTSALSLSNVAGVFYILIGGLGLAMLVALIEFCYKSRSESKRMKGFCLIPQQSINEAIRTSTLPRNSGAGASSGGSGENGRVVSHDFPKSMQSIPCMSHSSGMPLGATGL
T2 sequence (P42262 22-883 limits assumed): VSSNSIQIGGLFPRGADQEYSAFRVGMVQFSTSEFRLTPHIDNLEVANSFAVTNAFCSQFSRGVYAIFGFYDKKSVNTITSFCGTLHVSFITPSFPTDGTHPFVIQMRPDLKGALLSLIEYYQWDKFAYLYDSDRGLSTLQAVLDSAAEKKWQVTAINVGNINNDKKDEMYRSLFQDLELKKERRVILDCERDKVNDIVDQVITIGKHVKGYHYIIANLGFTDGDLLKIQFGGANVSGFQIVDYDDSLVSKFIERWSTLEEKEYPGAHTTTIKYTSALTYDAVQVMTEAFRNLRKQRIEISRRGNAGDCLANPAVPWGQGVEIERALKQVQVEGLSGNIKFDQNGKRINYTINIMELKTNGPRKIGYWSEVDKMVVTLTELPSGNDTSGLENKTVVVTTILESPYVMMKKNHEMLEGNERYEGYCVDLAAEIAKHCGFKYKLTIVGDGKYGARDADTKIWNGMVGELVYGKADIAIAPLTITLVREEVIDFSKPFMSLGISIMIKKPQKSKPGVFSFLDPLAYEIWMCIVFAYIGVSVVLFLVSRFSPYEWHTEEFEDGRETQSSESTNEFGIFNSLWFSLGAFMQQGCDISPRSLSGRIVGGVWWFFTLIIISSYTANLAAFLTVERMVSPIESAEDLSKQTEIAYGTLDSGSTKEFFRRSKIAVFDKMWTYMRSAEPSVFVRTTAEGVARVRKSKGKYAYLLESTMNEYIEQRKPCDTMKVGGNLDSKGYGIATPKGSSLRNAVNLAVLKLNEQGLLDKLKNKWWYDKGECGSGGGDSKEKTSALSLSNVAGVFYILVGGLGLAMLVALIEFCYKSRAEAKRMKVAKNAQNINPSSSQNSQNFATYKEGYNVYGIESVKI
Procedure: as §1, §2, §3

[1] = target: T3, wild type AMPA receptor (GluA3) (Homo sapiens, UniProt P42263); experiment: Direct AMPA receptor current recording in Xenopus oocytes, wild type GluA3; assay type: cell-based
T3 construct: expressed in transfected cells; host or cells: Xenopus oocytes
T3 sequence (P42263 29-894, species assumed): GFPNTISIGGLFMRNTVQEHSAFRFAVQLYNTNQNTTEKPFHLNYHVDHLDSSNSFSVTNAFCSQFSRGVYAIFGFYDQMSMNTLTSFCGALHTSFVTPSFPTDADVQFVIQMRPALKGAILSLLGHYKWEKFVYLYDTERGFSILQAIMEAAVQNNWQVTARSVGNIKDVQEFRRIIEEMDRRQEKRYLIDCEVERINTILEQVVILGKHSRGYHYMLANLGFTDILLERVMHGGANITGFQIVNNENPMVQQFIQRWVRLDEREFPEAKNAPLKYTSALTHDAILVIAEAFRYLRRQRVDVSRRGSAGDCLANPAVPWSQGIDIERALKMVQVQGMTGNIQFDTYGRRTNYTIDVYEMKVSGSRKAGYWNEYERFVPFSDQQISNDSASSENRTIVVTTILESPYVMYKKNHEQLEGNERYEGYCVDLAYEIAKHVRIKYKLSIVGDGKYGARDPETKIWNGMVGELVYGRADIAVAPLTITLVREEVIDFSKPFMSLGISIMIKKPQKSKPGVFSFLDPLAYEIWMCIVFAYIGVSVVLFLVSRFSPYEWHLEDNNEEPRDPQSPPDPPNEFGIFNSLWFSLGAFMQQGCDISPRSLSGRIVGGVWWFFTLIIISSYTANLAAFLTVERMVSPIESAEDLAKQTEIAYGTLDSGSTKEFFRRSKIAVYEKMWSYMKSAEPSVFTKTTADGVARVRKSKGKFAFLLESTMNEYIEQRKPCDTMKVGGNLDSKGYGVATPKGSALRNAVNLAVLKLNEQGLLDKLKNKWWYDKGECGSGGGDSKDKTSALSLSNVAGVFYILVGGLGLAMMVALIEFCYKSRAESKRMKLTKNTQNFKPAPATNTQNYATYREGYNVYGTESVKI
Procedure: as §1, §3
(§4) To confirm this, we expressed a GYKI resistant subunit GluA3 mutant (11) and assessed it for sensitivity to perampanel and decanoic acid (FIG. 1C).

[2] = tested on: GYKI resistant subunit GluA3 mutant; experiment: Direct AMPA receptor current recording in Xenopus oocytes, GYKI resistant GluA3 mutant; assay type: cell-based
Procedure: as §1, §3, §4

[3] = tested on: PTZ-induced epileptiform activity in rat entorhinal cortex-hippocampal slices; experiment: Rat hippocampal PTZ seizure-like activity analysis; assay type: cell-based; settings: for IC50: Rattus norvegicus, read-out: decanoic acid IC50 for epileptiform activity; for seizure activity: modelled data
Procedure: FIG. 3. (A) Epileptiform (paroxysmal) activity was induced in rat entorhinal cortex-hippocampal slices by application of PTZ (2 mM) and [K+] (to 6 mM), and recorded over time at fixed perampanel and increasing decanoic acid (DA) concentration. (B) Epileptiform activity was normalised to activity in absence or presence of each concentration (100 nM and 500 nM) and shown at variable DA concentrations. […] Data is derived from at least three biological repeats.
Seizure-like activity was induced, as previously described (Chang et al. 2016. Brain 139: 431-43), in rat entorhinal cortex-hippocamal slices by application of PTZ (2 mM) to the perfusate and [K+] was increased (to 6 mM). Perampanel (100 or 500 nM) or DMSO was applied to the perfusate, and then decanoic acid (Sigma Ltd) was applied at increasing concentrations at 10 minutes intervals. The change in the frequency of the discharges was measured at minute intervals, averaged every 5 minutes, and normalised to baseline. Data were analyzed using Origin (OriginLab Corporation, MA USA) and SPSS (IBM, UK) with IC50 values calculated from fitting data values with a Hill plot. Statistical analysis was performed using a one-way ANOVA with two-way Dunnett's post hoc test.

[4] = Decanoic acid levels in patients on the MCT ketogenic diet; assay type: in vivo; settings: extrapolating the rodent ratio to human brain
[5] = patients on the MCT ketogenic diet; cited from earlier work
[6] = rodent models; cited from earlier work
[7] = IC50, inhibition of AMPA receptor currents, perampanel alone, currents elicited by glutamate, Xenopus oocytes (FIG. 1B)
[8] = read-out: glutamate evoked maximal response reduced to

T1 sequence (P42262 22-883 limits assumed): as the sequence (P42262 22-883 limits assumed) above
T1 sequence (P42263 29-894): as the sequence (P42263 29-894, species assumed) above

For CCCCCCCCCC(=O)O [decanoic acid], the IC50 (AMPA receptor GluA2/3; in the absence of perampanel, read-out: decanoic acid IC50 for GluA2/3) was 520 µM, the IC50 (AMPA receptor GluA2/3; in the presence of 1 μM perampanel, read-out: decanoic acid IC50 for GluA2/3) was 100 µM and the IC50 (AMPA receptor GluA2/3; in the presence of 4 μM perampanel, read-out: decanoic acid IC50 for GluA2/3) was 40 µM. It also gave an IC50 (AMPA receptor GluA1/2; in the absence of perampanel, read-out: decanoic acid IC50 for GluA1/2) of 920 µM, an IC50 (AMPA receptor GluA1/2; in the presence of 1 μM perampanel, read-out: decanoic acid IC50 for GluA1/2) of 210 µM and an IC50 (AMPA receptor GluA1/2; in the presence of 4 μM perampanel, read-out: decanoic acid IC50 for GluA1/2) of 90 µM. The “reduction of glutamate-induced currents” value ([1]; decanoic acid 1 mM) was 74.5%, the “reduction of glutamate-induced currents” value ([2]; decanoic acid 1 mM) was 72.8% and the IC50 ([3]; at 100 nM perampanel) was 196 µM. It also gave an IC50 ([3]; at 500 nM perampanel) of 122 µM, an IC50 ([3]; without perampanel) of 352 µM and a seizure activity ([3]; decanoic acid 10 μM combined with perampanel 100 nM) of 76.8%. For the same compound, the “seizure activity (baseline inhibition reduced to)” value ([3]; decanoic acid 10 μM with perampanel 500 nM) was 69.6%, the “concentration giving block of epileptiform activity” value ([3]; decanoic acid alone) was 1000 µM and the “concentration at which epileptiform activity was reduced” value ([3]; decanoic acid alone, increasing concentrations) was 300 µM. For the same compound, the “concentration giving block in seizure activity” value ([3]; decanoic acid combined with perampanel 100 nM) was 600 µM, the “average concentration of decanoic acid in the brain” value [4] was “around 110 μM” and the “average concentration of decanoic acid in peripheral blood” value [5] was 157 µM. The “ratio of decanoic acid in brain to blood plasma” value [6] was “around 0.7”.

In the case of N#Cc1ccccc1-c1cc(-c2ccccn2)cn(-c2ccccc2)c1=O [perampanel, 3-(2-Cyanophenyl)-5-(2-pyridyl)-1-phenyl-1,2-dihydropyridin-2-one], the IC50 (AMPA receptor GluA2/3; [7]) is reported as 1.51 µM, the “reduction in the IC50 value for perampanel” value (AMPA receptor GluA2/3; in combination with decanoic acid, GluA2/3) is reported as roughly 3 fold and the IC50 (AMPA receptor GluA2/3; perampanel IC50 in GluA2/3, in the absence of DA (FIG. 2E)) is reported as 5.1 µM. The IC50 (AMPA receptor GluA2/3; perampanel IC50 in GluA2/3, in the presence of DA at 50 mM) was 1.7 µM, the IC50 (AMPA receptor GluA2/3; perampanel IC50 in GluA2/3, in the presence of DA at 100 Mm) was 1.6 µM and the “increase in the inhibition of the AMPA receptor by perampanel” value (AMPA receptor GluA2/3; with 100 μM decanoic acid, subunit combination not specified) was 3 fold. For the same compound, the IC50 (AMPA receptor GluA1/2; [7]) was 1.12 µM, the “reduction in the IC50 value for perampanel” value (AMPA receptor GluA1/2; in combination with decanoic acid, GluA1/2) was roughly 3 fold and the “manner of inhibition of AMPA receptor currents” value (AMPA receptor GluA1/2; increasing glutamate concentrations not reversing inhibition (FIG. 1C)) was “non-competitive”. It also gave an IC50 (AMPA receptor GluA1/2; perampanel IC50 in GluA1/2) of 2.1 µM, an IC50 (AMPA receptor GluA1/2; perampanel IC50 in GluA1/2, in the absence of DA (FIG. 2F)) of 6.2 µM and an IC50 (AMPA receptor GluA1/2; perampanel IC50 in GluA1/2, in the presence of DA) of 2.2 µM. For the same compound, the Emax at 2.5 µM (AMPA receptor GluA1/2; [8]) was 75.2%, the Emax at 5 µM (AMPA receptor GluA1/2; [8]) was 16.9% and the “reduction of glutamate-induced currents” value ([1]; perampanel 20 μM) was 94.7%. For the same compound, the “reduction of glutamate-induced currents” value ([2]; perampanel 20 μM) was 54.3% and the seizure activity ([3]; perampanel 100 nM, in the absence of decanoic acid) was 95.6%.
